Assay results from patent US20260273072A1, “NOVEL PLK1 DEGRADATION INDUCING COMPOUND” (UPPTHERA, INC., priority 2023, published 2026).

Experiments:
Format in all cases: cell-based
NCI-H526 cell line = assay: Cell viability assay for NCI-H526 cell line (EZ-Cytox); conditions: Homo sapiens, NCI-H526, 120 h; H526 cells, 5 days, 3000 nM to 0.46 nM
Experimental: (§1) 3. Cell Viability Assay for NCI-H69, NCI-H526 Cell Lines
(§2) (1) Culture of NCI-H69, NCI-H526 Cell Lines
(§3) The NCI-H69 (hereafter H69) and NCI-H526 (hereafter H526) cell lines were purchased from KCLB.
(§4) (2) Treatment of Compounds of the Present Invention and Method of Cell Viability Assay
(§5) After treating the compound to each well to make the total volume of 200 μl, it was cultured in a CO2 incubator (Thermo Fisher Scientific) for 5 days. […] The absorbance of the completely cultured sample was measured by setting the wavelength of a plate reader (BMG Labtech) to […], and was measured after shaking for 3 minutes in a plate reader before measurement.
(§6) The results of cell viability for H526 and H69 cell line are shown in Table 3 and Table 4, respectively.
(§7) In Table 3 and Table 4, Activity represents IC50 value of each Exemplary Compound treatment group to H526 and H69 cell line, respectively (A: <30 nM, B: <50 nM, C: <100 nM, D: <200 nM, E: <400 nM).

PLK1 = biological target: T1, PLK1 (Homo sapiens, UniProt P53350); assay: Luciferase assay for PLK1 in HeLa LgBit (Plk1-HiBit KI) cell line; conditions: 300 nM compound, luminescence after 9 hours
T1 construct: endogenous in cells; host or cells: HeLa LgBit (Plk1-HiBit KI): HeLa stably expressing LgBit, with a CRISPR/Cas9 knock-in of HiBit at the endogenous PLK1 locus
T1 sequence (P53350 whole entry): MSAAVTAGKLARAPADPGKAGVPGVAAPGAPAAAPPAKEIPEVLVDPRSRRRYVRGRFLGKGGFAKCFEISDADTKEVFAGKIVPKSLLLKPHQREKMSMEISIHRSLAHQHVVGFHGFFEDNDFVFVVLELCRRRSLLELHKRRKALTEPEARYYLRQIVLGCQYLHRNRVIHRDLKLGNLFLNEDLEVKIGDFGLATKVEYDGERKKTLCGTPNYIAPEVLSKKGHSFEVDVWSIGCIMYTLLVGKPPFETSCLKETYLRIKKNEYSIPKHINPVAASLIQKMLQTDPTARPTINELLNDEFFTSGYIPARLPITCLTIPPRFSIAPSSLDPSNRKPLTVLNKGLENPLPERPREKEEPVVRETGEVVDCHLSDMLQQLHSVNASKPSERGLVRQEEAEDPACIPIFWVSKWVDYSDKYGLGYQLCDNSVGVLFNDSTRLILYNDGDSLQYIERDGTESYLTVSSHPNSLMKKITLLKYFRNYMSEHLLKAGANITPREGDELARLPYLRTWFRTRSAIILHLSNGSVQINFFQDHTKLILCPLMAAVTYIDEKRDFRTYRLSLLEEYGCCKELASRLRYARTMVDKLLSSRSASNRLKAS
Experimental: 2. Luciferase Assay for PLK1
(1) Preparation and Culture of HeLa LgBit (Plk1-HiBit KI) Cell Line
A HeLa cell line in which the LgBit vector was transfected and expressed stably was prepared. Then, after constructing gRNA and donor to express the HiBit amino acid sequence behind the C-terminal of the PLK1 gene, which was inherent in the cell, it was inserted into the cell together with a vector capable of expressing CRISPR/Cas9. Only the cells in which the insertion was completed and knock-in had progressed were selected, sub-cultured and used.
For cell culture, DMEM (Gibco), FBS (Gibco), PS (Gibco), […] cell culture dish (SPL), […] cell culture dish (SPL), 96-well culture plate (SPL), PBS pH 7.4 (Gibco), TrypLE™ Express (Gibco), Cell counter (Thermo Fisher Scientific) and 0.4% Trypan Blue Solution (DYNEBIO) were used.
(2) Treatment of Compounds of the Present Invention and Method of Luciferase Assay
In the case of HeLa LgBit (Plk1-HiBit KI), the compounds were treated after being released after thymidine block, and the process was as follows. Thymidine (Sigma-Aldrich) was completely dissolved in ddH2O and used in the experiment. For thymidine block, the products were treated with 2 mM of thymidine and then incubated for 24 hours. For release and chemical treatment, the medium was suctioned and washed with 1×PBS. TrypLE™ (Gibco) was added and incubated in 37° C. CO2 incubator (Thermo Fisher Scientific) for 5 mins. Cells neutralized by adding complete media were counted through a counter. For each well of a 96-well culture plate (SPL), 3.3×10^4 cells and a total medium volume of 150 μl were seeded and incubated in a CO2 incubator.
Each cell line was incubated in a CO2 incubator for 18 hours, and Endurazine (Promega, Cat. No. N257B) was added to each well to make up 4% of the total volume. After adding compounds of Examples in a 96-well white plate (SPL) to a concentration of 300 nM, the wavelength of the plate reader (BMG Labtech, CLARIOstar Plus) was set to 470-480 nm, and then the luminescence was tracked in real time.
In Table 2, Activity represents the ratio of the luminescence value of each Exemplary Compound treatment group to DMSO treatment group (+++: <0.3, ++: <0.5, +: <0.7).

MRC-5 cell line = assay: Cell viability assay for MRC-5 cell line (EZ-Cytox); conditions: Homo sapiens, MRC5, 120 h; MRC-5 normal cell line, 5 days, 10000 nM to 1.52 nM; read-out: Activity: IC50 value, cell viability, MRC-5 cell line (Exemplary Compounds)
Experimental: 4. Cell Viability Assay for MRC-5 Cell Line
(1) Culture of MRC-5 Cell Line
The MRC-5 cell line was purchased from KCLB. Passage of cultured cells was maintained within P15.
(2) Treatment of Compounds of the Present Invention
Then, it was cultured in 37° C. CO2 incubator (Thermo Fisher Scientific) for 5 days.
(3) Cytotoxicity Experiment
CO2 incubator for 4 hours.

NCI-H69 cell line = assay: Cell viability assay for NCI-H69 cell line (EZ-Cytox); conditions: Homo sapiens, NCI-H69, 120 h; H69 cells, 5 days, 3000 nM to 0.46 nM
Experimental: as §1, §2, §3, §4, §5, §6, §7

SMILES | Activity: ratio of the luminescence value of compound treatment group to DMSO treatment group (PLK1) | IC50 (NCI-H526 cell line) [nM] | IC50 (MRC-5 cell line) [nM] | IC50 (NCI-H69 cell line) [nM]
COc1cc(C(=O)NN2CCC(CCN3CCN(c4cc(OC)c(C5CCC(=O)NC5=O)cc4F)CC3)CC2)ccc1Nc1ncc2c(n1)N(C(C)C)CC(F)(F)C(=O)N2C (stereo not shown) [Compound 7, 4-((7,7-difluoro-9-isopropyl-5-methyl-6-oxo-6,7,8,9-tetrahydro-5H-pyrimido[4,5-b][1,4]diazepin-2-yl)amino)-N-(4-(2-(4-(4-(2,6-dioxopiperidin-3-yl)-2-fluoro-5-methoxyphenyl)piperazin-1-yl)ethyl)piperidin-1-yl)-3-methoxybenzamide] | ++ (++: <0.5) | < 50 | > 10000 | < 50
COc1cc(C(=O)N[C@H]2CC[C@H](N(C)CC3CCN(c4cccc(N5CCC(=O)NC5=O)c4)CC3)CC2)ccc1Nc1ncc2c(n1)N(C1CCCC1)CC(F)(F)C(=O)N2C [Compound 8, 4-((9-cyclopentyl-7,7-difluoro-5-methyl-6-oxo-6,7,8,9-tetrahydro-5H-pyrimido[4,5-b][1,4]diazepin-2-yl)amino)-N-((1r,4r)-4-(((1-(3-(2,4-dioxotetrahydropyrimidin-1 (2H)-yl)phenyl)piperidin-4-yl)methyl)(methyl)amino)cyclohexyl)-3-methoxybenzamide] | ++ (++: <0.5) | < 30 | > 10000 | < 30
COc1cc(C(=O)N[C@H]2CC[C@H](CN(C)C3CCN(c4ccc(C5CCC(=O)NC5=O)nc4)CC3)CC2)ccc1Nc1ncc2c(n1)N(C1CCCC1)CC(F)(F)C(=O)N2C (stereo partly shown) [Compound 9, 4-((9-cyclopentyl-7,7-difluoro-5-methyl-6-oxo-6,7,8,9-tetrahydro-5H-pyrimido[4,5-b][1,4]diazepin-2-yl)amino)-N-((1r,4r)-4-(((1-(6-(2,6-dioxopiperidin-3-yl)pyridin-3-yl)piperidin-4-yl)(methyl)amino)methyl)cyclohexyl)-3-methoxybenzamide] | ++ (++: <0.5) | < 30 | > 10000 | < 30
COc1cc(C(=O)NC2CCC(N(C)CC3CCN(c4cnc(C5CCC(=O)NC5=O)cc4C)CC3)CC2)ccc1Nc1ncc2c(n1)N(C)CC(F)(F)C(=O)N2C (stereo not shown) [Compound 12, 4-((7,7-difluoro-5,9-dimethyl-6-oxo-6,7,8,9-tetrahydro-5H-pyrimido[4,5-b][1,4]diazepin-2-yl)amino)-N-((1r,4r)-4-(((1-(6-(2,6-dioxopiperidin-3-yl)-4-methylpyridin-3-yl)piperidin-4-yl)methyl)(methyl)amino)cyclohexyl)-3-methoxybenzamide] | +++ (+++: <0.3) | < 200 | > 10000 | < 200
CCN1CC(F)(F)C(=O)N(C)c2cnc(Nc3ccc(C(=O)NC4CCC(N(C)CC5CCN(c6cnc(C7CCC(=O)NC7=O)cc6C)CC5)CC4)cc3OC)nc21 (stereo not shown) [Compound 13, N((1r,4r)-4-(((1-(6-(2,6-dioxopiperidin-3-yl)-4-methylpyridin-3-yl)piperidin-4-yl)methyl)(methyl)amino)cyclohexyl)-4-((9-ethyl-7,7-difluoro-5-methyl-6-oxo-6,7,8,9-tetrahydro-5H-pyrimido[4,5-b][1,4]diazepin-2-yl)amino)-3-methoxybenzamide] | +++ (+++: <0.3) | < 30 | > 10000 | < 30
COc1cc(C(=O)NC2CCC(N(C)CC3CCN(c4cnc(C5CCC(=O)NC5=O)cc4C)CC3)CC2)ccc1Nc1ncc2c(n1)N(C1CCCC1)CC(F)(F)C(=O)N2C (stereo not shown) [Compound 14, 4-((9-cyclopentyl-7,7-difluoro-5-methyl-6-oxo-6,7,8,9-tetrahydro-5H-pyrimido[4,5-b][1,4]diazepin-2-yl)amino)-N-((1r,4r)-4-(((1-(6-(2,6-dioxopiperidin-3-yl)-4-methylpyridin-3-yl)piperidin-4-yl)methyl)(methyl)amino)cyclohexyl)-3-methoxybenzamide] | +++ (+++: <0.3) | < 30 | > 10000 | < 30
COc1cc(C(=O)NC2CCC(N(C)CC3CCN(c4cnc(C5CCC(=O)NC5=O)cc4C)CC3)CC2)ccc1Nc1ncc2c(n1)N(C(C)C)CC(F)(F)C(=O)N2C (stereo not shown) [Compound 15, 4-((7,7-difluoro-9-isopropyl-5-methyl-6-oxo-6,7,8,9-tetrahydro-5H-pyrimido[4,5-b][1,4]diazepin-2-yl)amino)-N-((1r,4r)-4-(((1-(6-(2,6-dioxopiperidin-3-yl)-4-methylpyridin-3-yl)piperidin-4-yl)methyl)(methyl)amino)cyclohexyl)-3-methoxybenzamide] | +++ (+++: <0.3) | < 30 | > 10000 | < 30

Further lines, with some results ahead:

Activity: ratio of the luminescence value of compound treatment group to DMSO treatment group (PLK1) | SMILES | IC50 (NCI-H526 cell line) [nM] | IC50 (MRC-5 cell line) [nM] | IC50 (NCI-H69 cell line) [nM]
+++ (+++: <0.3) | COc1cc(C(=O)NC2CCC(N(C)CC3CCN(c4ccc(C5CCC(=O)NC5=O)cc4C)CC3)CC2)ccc1Nc1ncc2c(n1)N(C1CCCC1)CC(F)(F)C(=O)N2C (stereo not shown) [Compound 6, 4-((9-cyclopentyl-7,7-difluoro-5-methyl-6-oxo-6,7,8,9-tetrahydro-5H-pyrimido[4,5-b][1,4]diazepin-2-yl)amino)-N-((1r,4r)-4-(((1-(4-(2,6-dioxopiperidin-3-yl)-2-methylphenyl)piperidin-4-yl)methyl)(methyl)amino)cyclohexyl)-3-methoxybenzamide] | < 100 | > 10000 | < 50
+++ (+++: <0.3) | COc1cc(C(=O)NC2CCC(N(C)CC3CCN(c4ccc(C5CCC(=O)NC5=O)nc4)CC3)CC2)ccc1Nc1ncc2c(n1)N(C1CCCC1)CC(F)(F)C(=O)N2C (stereo not shown) [Compound 10, 4-((9-cyclopentyl-7,7-difluoro-5-methyl-6-oxo-6,7,8,9-tetrahydro-5H-pyrimido[4,5-b][1,4]diazepin-2-yl)amino)-N-((1r,4r)-4-(((1-(6-(2,6-dioxopiperidin-3-yl)pyridin-3-yl)piperidin-4-yl)methyl)(methyl)amino)cyclohexyl)-3-methoxybenzamide] | < 30 | > 10000 | < 30
++ (++: <0.5) | COc1cc(C(=O)NC2CCC(N(C)CC3CCN(c4ccc(C5CCC(=O)NC5=O)nc4)CC3)CC2)ccc1Nc1ncc2c(n1)N(C(C)C)CC(F)(F)C(=O)N2C (stereo not shown) [Compound 11, 4-((7,7-difluoro-9-isopropyl-5-methyl-6-oxo-6,7,8,9-tetrahydro-5H-pyrimido[4,5-b][1,4]diazepin-2-yl)amino)-N-((1r,4r)-4-(((1-(6-(2,6-dioxopiperidin-3-yl)pyridin-3-yl)piperidin-4-yl)methyl)(methyl)amino)cyclohexyl)-3-methoxybenzamide] | < 30 | > 10000 | < 30
